How the values were obtained:
hAT1R [1] = molecular target: T1, hAT1R (Homo sapiens, UniProt P30556); assay: cell-based
T1 sequence (P30556 1-359): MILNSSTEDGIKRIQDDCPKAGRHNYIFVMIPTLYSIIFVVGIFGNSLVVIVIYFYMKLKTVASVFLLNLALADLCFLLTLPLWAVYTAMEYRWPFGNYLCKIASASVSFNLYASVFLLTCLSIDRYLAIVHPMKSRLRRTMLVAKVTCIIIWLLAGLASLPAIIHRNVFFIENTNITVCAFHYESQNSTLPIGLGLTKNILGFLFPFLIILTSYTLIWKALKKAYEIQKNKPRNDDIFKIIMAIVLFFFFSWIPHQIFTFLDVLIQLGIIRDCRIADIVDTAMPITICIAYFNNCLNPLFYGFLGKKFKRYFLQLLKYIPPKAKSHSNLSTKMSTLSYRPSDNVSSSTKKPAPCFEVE

AGTR1 [2] = molecular target: T2, AGTR1 (Homo sapiens, UniProt P30556); assay: DiscoveRx β-arrestin2 recruitment assay (enzyme complementation, Pathunter CHO-K1 AGTR1 β-arrestin cell line); type: cell-based; conditions: DiscoveRx β-arrestin2 recruitment; for DiscoveRx β-arrestin2 Ymax (%): maximal response
T2 construct: host or cells: Pathunter CHO-K1 AGTR1 β-arrestin cell line (CHO-K1)
T2 sequence (P30556 1-359): T1 sequence (P30556 1-359)
Summary of the method: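 Chemiluminescent enzyme-complementation read-out of β-arrestin2 recruitment to AGTR1 in engineered CHO-K1 cells after 90 min compound exposure at 37° C. Values are 4-parameter logistic EC50s in agonist mode, IC50s in antagonist mode, with efficacy relative to the maximal All response.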

hAT1R [3] = molecular target: T1, hAT1R; assay: cell-based; conditions: agonist mode; for EC50: read-out: BRET P63 EC50
AGTR1 [4] = molecular target: T2, AGTR1; assay: DiscoveRx IP1 accumulation assay (HTRF), agonist mode, Pathunter CHO-K1 AGTR1 β-arrestin cell line; type: cell-based; conditions: for EC50: read-out: IP-1 EC50
Summary of the method: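 Agonist mode in CHO-K1 AGTR1 β-arrestin cells plated 14-16 h before; compounds at varying concentrations for 90 min at 37° C, IP1 accumulation read by HTRF (D2-conjugate and anti-IP1 cryptate, 20 min room temperature). EC50 from 4-parameter logistic fit; activity given as percentage of maximal AII effect.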

hAT1R [5] = molecular target: T1, hAT1R; assay: BRET β-arrestin2 biosensor assay, higher receptor expression (hAT1R 5 ng/well), HEK293 cells; type: cell-based; conditions: for EC50: High AT1R Expression
[6] = Low AT1R Expression, read-out: BRET β-Arrestin2 Low AT1R Expression EC50
[7] = section of the 42nd table ending at r951, example numbering restarts after the DiscoveRx section, read-out: β-arrestin2 EC50

SMILES	BRET β-Arrestin2 Low AT1R Expression Ymax (%) (hAT1R [1]; Low AT1R Expression)	EC50 (hAT1R [1]; [6]) [nM]	EC50 (AGTR1 [2]) [nM]	DiscoveRx β-arrestin2 Ymax (%) (AGTR1 [2])	BRET P63 Ymax (hAT1R [3]) [%]	EC50 (hAT1R [3]) [nM]	IP-1 Ymax (%) (AGTR1 [4])	EC50 (AGTR1 [4]) [nM]	BRET β-Arrestin2 High AT1R Expression Ymax (%) (hAT1R [5])	EC50 (hAT1R [5]) [nM]	EC50 (hAT1R [1]; [7]) [nM]
CCc1nc2c(C)cc(C)nc2n1Cc1ccc(-c2cc(-c3cccc(C(F)(F)F)n3)ccc2-c2nn[nH]n2)cc1 [Example 61]	38.2	108	31.5	43.7	6.4	22.3	9.8	150	81.4	16.1	–
CCc1nc2c(C)cc(C)nc2n1Cc1ccc(-c2cc(-c3ccccc3C)ccc2-c2nn[nH]n2)cc1 [Example 2]	15.2	11	19.8	21.8	2.7	22	13.1	71.8	74.2	11.3	–
CCCCC1=NC2(CCCC2)C(=O)N1Cc1ccc(-c2cc(-c3ccc(C(=O)N(C)C)cc3)ccc2-c2nn[nH]n2)cc1 [Example 133]	–	> 10000	5.7	18.0	–	> 10000	–	> 100000	69.0	38.4	–
CCc1nc2c(C)cc(C)nc2n1Cc1ccc(-c2cc(-c3ccc(CO)cc3)ccc2-c2nnn[nH]2)cn1 [Example 180]	–	–	51.9	40.4	14.9	210	27.5	226	85.3	50.8	178
CCc1nc2c(C)cc(C)nc2n1Cc1ccc(-c2cc(-n3cccn3)ccc2-c2nn[nH]n2)cc1 [Example 25]	10.1	32.9	15.9	23.1	–	> 100000	6.7	40.8	74.5	19.8	–
CCc1nc2c(C)cc(C)nc2n1Cc1ccc(-c2cc(-c3ccccn3)ccc2-c2nn[nH]n2)cc1 [Example 30, 2-Ethyl-5,7-dimethyl-3-((5′-(pyridin-2-yl)-2′-(2H-tetrazol-5-yl)-[1,1′-biphenyl]-4-yl)methyl)-3H-imidazo[4,5-b]pyridine]	72.9	14.5	4.9	48.0	23.5	19.1	12.3	15.9	87.5	5.6	–
CCc1nc2c(C)cc(C)nc2n1Cc1ccc(-c2cc(-c3cn(CC)nn3)ccc2-c2nnn[nH]2)cc1 [Example 234, 2-Ethyl-3-((5′-(1-ethyl-1H-1,2,3-triazol-4-yl)-2′-(1H-tetrazol-5-yl)-[1,1′-biphenyl]-4-yl)methyl)-5,7-dimethyl-3H-imidazo[4,5-b]pyridine]	–	–	9.2	59.9	37.1	28.2	18.8	19.3	93.3	3.4	12.2
CCc1nc2c(C)cc(C)nc2n1Cc1ccc(-c2cc(-c3cn(CCO)nn3)ccc2-c2nnn[nH]2)cc1 [Example 235]	–	–	56.6	56.0	17.7	161	14.9	213	89.5	29.6	129
CCc1nc2c(C)cc(C)nc2n1Cc1ncc(-c2cc(-c3ccccc3)ccc2-c2nnn[nH]2)cn1 [Example 190]	–	–	138	57.0	16.4	432	17.5	485	88.8	83.6	154
CCc1nc2c(C)cc(C)nc2n1Cc1ccc(-c2cc(Oc3cc(F)ccn3)ccc2-c2nn[nH]n2)cc1 [Example 254]	–	–	35.8	26.9	7.1	39.9	30.0	177	75.6	20	59.1
CCc1nc2c(C)cc(C)nc2n1Cc1ccc(-c2cc(Oc3ncccc3F)ccc2-c2nn[nH]n2)cc1 [Example 253]	–	–	31.2	37.2	12.6	38.3	18.7	133	85.3	17.9	46
CCc1nc2c(C)cc(C)nc2n1Cc1ccc(-c2cc(Oc3ccc(F)cc3F)ccc2-c2nnn[nH]2)cc1 [Example 208]	–	–	20.8	44.8	17.4	13.3	19.9	106	103.1	6	26.4
CCc1nc2c(C)cc(C)nc2n1Cc1ccc(-c2cc(Oc3ccccc3F)ccc2-c2noc(=O)[nH]2)cc1 [Example 214, 3-(4′-((2-Ethyl-5,7-dimethyl-3H-imidazo[4,5-b]pyridin-3-yl)methyl)-5-(2-fluorophenoxy)-[1,1′-biphenyl]-2-yl)-1,2,4-oxadiazol-5(4H)-one]	–	–	76.1	74.1	43.3	35.6	50.0	89.6	86.5	4.2	15.9
CCc1nc2c(C)cc(C)nc2n1Cc1ccc(-c2cc(Oc3cncc(C)c3)ccc2-c2nn[nH]n2)cc1 [Example 260]	–	–	51.7	36.4	–	> 100000	18.5	175	87.9	7.8	49.9
CCCC1=NC2(CCCC2)C(=O)N1Cc1ccc(-c2cc(N3CCC[C@@H](C)C3)ccc2-c2nn[nH]n2)cc1 [Example 117]	–	> 100000	74	30.6	–	> 100000	–	> 100000	35.0	94.2	–
CCCc1cn(-c2ccc(-c3nnn[nH]3)c(-c3ccc(Cn4c(CC)nc5c(C)cc(C)nc54)cc3)c2)nn1 [Example 228]	–	–	30.4	32.1	11.4	125	13.0	147	93.1	31.9	210
CCc1nc2c(C)cc(C)nc2n1Cc1ccc(-c2cc(N3CCCC(F)(F)C3)ccc2-c2nn[nH]n2)cc1 [Example 83]	43.1	152	23.9	40.5	8.2	54.8	9.0	26.9	87.3	52.1	–
CCc1nc2c(C)cc(C)nc2n1Cc1ccc(-c2cc(-c3ccccc3)ccc2C(=O)O)cn1 [Example 196, 3-(6-((2-ethyl-5,7-dimethyl-3H-imidazo[4,5-b]pyridin-3-yl)methyl)pyridin-3-yl)-[1,1′-biphenyl]-4-carboxylic acid]	–	–	3020	50.4	7.6	1100	12.1	869	83.3	618	1700
CCCn1cc(-c2ccc(-c3nnn[nH]3)c(-c3ccc(Cn4c(CC)nc5c(C)cc(C)nc54)cc3)c2)nn1 [Example 236]	–	–	12.5	60.8	36.2	34.6	19.2	48.2	93.3	3.6	17.3
